According to BindingDB's records for doi:10.1016/j.bmcl.2009.09.014 (Johnson & Johnson Pharmaceutical, 2009):

Target: Cathepsin S (Homo sapiens, UniProt P25774)
Assay: Cathepsn S Inhibition Assay
Details: pH 5; 23 °C
Method: Enzyme assays were run using fluorescence resonance energy transfer-based substrates, (Aedens)[…](Dabcyl)K-amide and cathepsin S cleaves between amino acids Leu-6 and Ala-7. The fluorescence of the aedens group is quenched by the dabcyl moiety in the intact peptide. Upon cleavage by cathepsin S, the quenching is released and the fluorescence of the aedens group can be measured. The increase in fluorescence was measured on a Cytofluor II (Applied Biosystems, Foster City, CA) with an excitation filter of 360/40 nm and an emission filter of 460/40 nm. A reading was made every minute for 20 to 60 min, and the slope obtained from a linear regression of this time course was used as the reaction rate. The reaction rates were determined for different inhibitor concentrations, and the percentage of inhibition was determined by comparison with the reaction rate in the absence of inhibitor. IC50 values were determined by four parameter fits of plots of the percentage of inhibition versus inhibitor concentration using the program GraFit (Erithacus Software Ltd.).

Cathepsin S, sequence (P25774 whole entry): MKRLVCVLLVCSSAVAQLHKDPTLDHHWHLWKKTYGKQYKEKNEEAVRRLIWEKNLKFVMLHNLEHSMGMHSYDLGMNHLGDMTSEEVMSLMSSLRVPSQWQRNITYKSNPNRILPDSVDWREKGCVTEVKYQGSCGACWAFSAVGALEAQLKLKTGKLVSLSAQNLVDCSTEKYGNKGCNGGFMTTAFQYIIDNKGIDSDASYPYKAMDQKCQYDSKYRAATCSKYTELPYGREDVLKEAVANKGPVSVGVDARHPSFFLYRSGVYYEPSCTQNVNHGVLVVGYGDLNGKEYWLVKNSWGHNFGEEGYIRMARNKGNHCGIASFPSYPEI

SMILES | IC50 [µM]
C#Cc1cc(-c2nn(CCCN3CCOCC3)c3c2CN(S(C)(=O)=O)CC3)ccc1Cl [arylalkyne pyrazole-based compound, 11] | 7.4
COC(=O)C(=O)N1CCc2c(c(-c3ccc(Cl)c(C#Cc4ccc(Cl)cc4)c3)nn2CCCN2CCOCC2)C1 [arylalkyne pyrazole-based compound, 33] | 0.04
